# Reference: patent publication US10294202B2, “Pyrrolidinones as herbicides” (FMC Corporation, priority 2013, dated 2019)
# Assays:
# barnyardgrass [1] = test: Test A pre-/postemergence herbicide test; format: in vivo, Echinochloa crus-galli
# In short: (§1)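 Seeds in loam–sand blend received preemergence directed soil spray; separately, plants 2–10 cm at one- to two-leaf stage received postemergence spray, both with test chemicals in non-phytotoxic solvent with surfactant. After ~10 days in greenhouse, injury rated visually against untreated controls, 0 (no effect) to 100 (complete control).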
# giant foxtail = test: Test A pre-/postemergence herbicide test; format: in vivo, Setaria faberii
# In short: as §1
# corn [2] = test: Test A pre-/postemergence herbicide test; format: in vivo, Zea mays
# In short: as §1
# ducksalad = test: Test B flooded paddy test; format: in vivo, Heteranthera limosa; conditions: 250 g ai/ha, Flood; scale of 0 to 100 where 0 is no effect and 100 is complete control
# In short: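 Visual ratings from 0, meaning no effect, up to 100, meaning complete control, were made by comparison with untreated controls 13 to 15 days after treatment. Test compounds went straight into floodwater standing 3 cm over the soil of pots holding 2-leaf seedlings.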
# ryegrass, Italian = test: Test C pre-/postemergence herbicide test; format: in vivo, Lolium multiflorum
# In short: (§2)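 Pre-emergence: seeds sown in loam/sand blend and treated with compound in surfactant-containing solvent. Post-emergence: plants at 2–18 cm (1- to 4-leaf stage) in peat-based medium sprayed with the same formulation. Visual rating versus controls after 13–15 days in greenhouse, scale 0 (no effect) to 100 (complete control).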
# corn [3] = test: Test C pre-/postemergence herbicide test; format: in vivo, Zea mays
# In short: as §2
# lambsquarters = test: Test C pre-/postemergence herbicide test; format: in vivo, Chenopodium album
# In short: as §2
# nutsedge, yellow = test: Test C pre-/postemergence herbicide test; format: in vivo, Cyperus esculentus
# In short: as §2
# soybean = test: Test C pre-/postemergence herbicide test; format: in vivo, Glycine max
# In short: as §2
# barnyardgrass [4] = test: Test C pre-/postemergence herbicide test; format: in vivo, Echinochloa crus-galli
# In short: as §2
# waterhemp = test: Test C pre-/postemergence herbicide test; format: in vivo, Amaranthus rudis
# In short: as §2
# [5] = Postemergence, 125 g ai/ha, 0 to 100 scale, 0 no effect, 100 complete control
# [6] = Postemergence, 500 g ai/ha, 0 to 100 scale (0 no effect, 100 complete control)
# [7] = Preemergence, 125 g ai/ha, visual rating on 0 to 100 scale (0 no effect, 100 complete control)
# [8] = preemergence, 500 g ai/ha, 0 to 100 scale
# [9] = Postemergence, 31 g ai/ha, scale 0 (no effect) to 100 (complete control)
# [10] = Postemergence, 62 g ai/ha, scale 0 to 100 (0 no effect, 100 complete control)
# [11] = Postemergence, 125 g ai/ha, scale 0 to 100 (0 no effect, 100 complete control)
# [12] = Postemergence, 250 g ai/ha, scale 0 to 100 (0 no effect, 100 complete control)
# [13] = Preemergence, 31 g ai/ha, scale 0 to 100, 0 is no effect and 100 is complete control
# [14] = Preemergence, 62 g ai/ha, scale 0 to 100
# [15] = Preemergence, 125 g ai/ha, scale 0 to 100 (0 no effect, 100 complete control)
structure (smiles),measurement,setting,value
O=C1NCC(c2ccc(F)c(C(F)(F)F)c2)C1C(=O)Nc1ccccc1F (racemic) [Compound 76],"Plant response rating, Barnyardgrass",barnyardgrass [1]; [5],80
same,"Plant response rating, Barnyardgrass",barnyardgrass [1]; [6],90
same,Barnyardgrass plant response rating,barnyardgrass [1]; [7],80
same,"Plant response rating, Barnyardgrass","barnyardgrass [1]; preemergence, 500 g ai/ha, 0 to 100 scale (0 no effect, 100 complete control)",80
same,"Plant response rating, Foxtail, Giant",giant foxtail; [5],80
same,"Plant response rating, Foxtail, Giant",giant foxtail; [6],80
same,"Foxtail, Giant plant response rating",giant foxtail; [7],90
same,"Plant response rating, Foxtail, Giant",giant foxtail; [8],90
same,"Plant response rating, Corn",corn [2]; [5],40
same,"Plant response rating, Corn",corn [2]; [6],70
same,Corn plant response rating,corn [2]; [7],0
same,"Plant response rating, Corn",corn [2]; [8],40
same,"Plant response rating, Ducksalad",ducksalad,90
same,"Plant response rating, Ryegrass, Italian","ryegrass, Italian; [9]",0
same,"Plant response rating, Ryegrass, Italian","ryegrass, Italian; [10]",0
same,"Plant response rating, Ryegrass, Italian","ryegrass, Italian; [11]",0
same,"Plant response rating, Ryegrass, Italian","ryegrass, Italian; [12]",5
same,"Ryegrass, Italian plant response rating","ryegrass, Italian; [13]",0
same,"Plant response rating, Ryegrass, Italian","ryegrass, Italian; [14]",25
same,"Plant response rating, Ryegrass, Italian","ryegrass, Italian; [15]",40
same,"Plant response rating (scale of 0 to 100), Ryegrass, Italian","ryegrass, Italian; Preemergence, 250 g ai/ha",40
same,"Plant response rating, Corn",corn [3]; [9],0
same,"Plant response rating, Corn",corn [3]; [10],0
same,"Plant response rating, Corn",corn [3]; [11],0
same,"Plant response rating, Corn",corn [3]; [12],0
same,Corn plant response rating,corn [3]; [13],0
same,"Plant response rating, Corn",corn [3]; [14],10
same,"Plant response rating, Corn",corn [3]; [15],40
same,"Plant response rating (scale of 0 to 100), Corn","corn [3]; Preemergence, 250 g ai/ha",65
same,"Plant response rating, Lambsquarters",lambsquarters; [9],40
same,"Plant response rating, Lambsquarters",lambsquarters; [10],40
same,"Plant response rating, Lambsquarters",lambsquarters; [11],40
same,"Plant response rating, Lambsquarters",lambsquarters; [12],50
same,"Plant response rating, Lambsquarters",lambsquarters; [14],0
same,"Plant response rating, Lambsquarters",lambsquarters; [15],0
same,"Plant response rating (scale of 0 to 100), Lambsquarters","lambsquarters; Preemergence, 250 g ai/ha",35
same,"Plant response rating, Nutsedge, Yellow","nutsedge, yellow; [9]",0
same,"Plant response rating, Nutsedge, Yellow","nutsedge, yellow; [10]",0
same,"Plant response rating, Nutsedge, Yellow","nutsedge, yellow; [11]",0
same,"Plant response rating, Nutsedge, Yellow","nutsedge, yellow; [12]",0
same,"Nutsedge, Yellow plant response rating","nutsedge, yellow; [13]",0
same,"Plant response rating, Nutsedge, Yellow","nutsedge, yellow; [14]",0
same,"Plant response rating, Nutsedge, Yellow","nutsedge, yellow; [15]",20
same,"Plant response rating (scale of 0 to 100), Nutsedge, Yellow","nutsedge, yellow; Preemergence, 250 g ai/ha",55
same,"Plant response rating, Soybean",soybean; [9],0
same,"Plant response rating, Soybean",soybean; [10],0
same,"Plant response rating, Soybean",soybean; [11],5
same,"Plant response rating, Soybean",soybean; [12],10
same,Soybean plant response rating,soybean; [13],0
same,"Plant response rating, Soybean",soybean; [14],0
same,"Plant response rating, Soybean",soybean; [15],0
same,"Plant response rating (scale of 0 to 100), Soybean","soybean; Preemergence, 250 g ai/ha",0
same,"Plant response rating, Barnyardgrass",barnyardgrass [4]; [9],0
same,"Plant response rating, Barnyardgrass",barnyardgrass [4]; [10],35
same,"Plant response rating, Barnyardgrass",barnyardgrass [4]; [11],85
same,"Plant response rating, Barnyardgrass",barnyardgrass [4]; [12],90
same,Barnyardgrass plant response rating,barnyardgrass [4]; [13],80
same,"Plant response rating, Barnyardgrass",barnyardgrass [4]; [14],85
same,"Plant response rating, Barnyardgrass",barnyardgrass [4]; [15],95
same,"Plant response rating (scale of 0 to 100; 0 is no effect, 100 is complete control), Barnyardgrass","barnyardgrass [4]; Preemergence, 250 g ai/ha",98
same,"Plant response rating, Waterhemp",waterhemp; [9],0
same,"Plant response rating, Waterhemp",waterhemp; [10],5
same,"Plant response rating, Waterhemp",waterhemp; [11],5
same,"Plant response rating, Waterhemp",waterhemp; [12],10
same,Waterhemp plant response rating,waterhemp; [13],50
same,"Plant response rating, Waterhemp",waterhemp; [14],50
same,"Plant response rating, Waterhemp",waterhemp; [15],50
same,"Plant response rating (scale of 0 to 100), Waterhemp","waterhemp; Preemergence, 250 g ai/ha",60
